Experiments:
[1] = in vivo; cited from earlier work
[2] = In vitro model: pore blocking of Millipore filter (IVMI); conditions: 0.185 molar aluminum solution; pH 10 buffer; 0.25% NaCl; 100 mm H2O; inverse relation to % sweat reduction
Description: The apparatus and test protocol are based on method described by Reller and Leudders (Reller, H. H. and Leudders, W. L., Advances in Modern Toxicology, 4: 1-59 (1977)) and EP 0586235 B1 disclosures of which are incorporated herein by reference. Reller and Leudders described a millipore system which they used to measure the obstruction caused by the neutralization of various metal salts. They then compared their in vitro findings with those obtained for antiperspirant efficacy of the salts which had been tested in humans and found a reasonable correlation. A modified version of the apparatus and protocol described in […] were developed and used to determine the relative in vitro efficacy of antiperspirant actives. The system is shown schematically in FIG. 2 of the accompanying drawings. The system consists of four major components, namely the pressure control unit 1, the sweat reservoir II, the cell III and the measuring system IV.
The pressure control unit I consisted of a standard nitrogen gas cylinder 1 equipped with a pressure regulator 2 and connected to an on/off isolation valve 3 and pressure relief safety valve 4. The on/off valve 3 isolates the nitrogen cylinder 1 from the rest of the system. The majority of connections were made using ¼″ stainless steel tubing and swage lock fittings. […]

[Cl][Al]([Cl])[Cl] [aluminum chloride solution, aluminum chloride]
antiperspirancy among the various aluminum salts [1]: highest antiperspirancy | IVMI (In Vitro Model Index) [2]: lowest
